Source: the supplement of paper PMC6045584

Columns and labels:
Experiment in all cases: area under dose-response curve of surviving fraction (unscaled, Aref=0) (surviving fraction x log10(nM)); higher = more resistant
Conditions in all cases: exposure time: 5 days; dose range 0.5-1000 nM
[1] = compound: O=C(O)CC[C@H]1CC[C@@](c2cc(F)ccc2F)(S(=O)(=O)c2ccc(Cl)cc2)CC1 [MK0752]
How it was run: (§1)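 Inhibitor was applied to tumour cell lines at eight concentrations (0.5 to 1000 nM) for five days in 384-well plates. Luminescence from CellTiter-Glo, scaled to DMSO-only wells, gave surviving fractions in three screens per line, and these were fitted by 3-parameter logistic regression with the drc R package. The area under the curve is an unscaled activity area. Aref was 0, and dose was on a log10 scale.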

[2] = compound: CN(Cc1cnc2nc(N)nc(N)c2n1)c1ccc(C(=O)N[C@@H](CCC(=O)O)C(=O)O)cc1 [METHOTREXATE]
How it was run: as §1

[3] = compound: NC1(c2ccc(-c3nc4ccn5c(=O)[nH]nc5c4cc3-c3ccccc3)cc2)CCC1 [MK2206]
How it was run: as §1

[4] = compound: COc1cc([C@@H]2c3cc4c(cc3[C@@H](O[C@@H]3O[C@@H]5CO[C@@H](C)O[C@H]5[C@H](O)[C@H]3O)[C@H]3COC(=O)[C@H]23)OCO4)cc(OC)c1O [ETOPOSIDE]
How it was run: as §1

[5] = compound: CCC1=C[C@@H]2CN(C1)Cc1c([nH]c3ccccc13)[C@@](C(=O)OC)(c1cc3c(cc1OC)N(C)[C@H]1[C@@](O)(C(=O)OC)[C@H](OC(C)=O)[C@]4(CC)C=CCN5CC[C@]31[C@@H]54)C2 [VINORELBINE]
How it was run: as §1

[6] = compound: O=C(NOCC1CC1)c1ccc(F)c(F)c1Nc1ccc(I)cc1Cl
How it was run: as §1

[7] = compound: CCN(CC)CCNC(=O)c1c(C)[nH]c(/C=C2\C(=O)Nc3ccc(F)cc32)c1C [SUNITINIB]
How it was run: as §1

[8] = compound: CCCS(=O)(=O)Nc1ccc(F)c(C(=O)c2c[nH]c3ncc(Cl)cc23)c1F [PLX-4720]
How it was run: as §1

[9] = compound: Nc1ccn([C@@H]2O[C@H](CO)[C@@H](O)C2(F)F)c(=O)n1 [GEMCITABINE]
How it was run: as §1

[10] = compound: Cc1nc(Nc2n[nH]c3c2CN(C(=O)N[C@H](CN(C)C)c2ccccc2)C3(C)C)c2sccc2n1
How it was run: as §1

[11] = compound: CO[C@H]1C[C@@H]2CC[C@@H](C)[C@@](O)(O2)C(=O)C(=O)N2CCCC[C@H]2C(=O)O[C@H]([C@H](C)C[C@@H]2CC[C@@H](OCCO)[C@H](OC)C2)CC(=O)[C@H](C)/C=C(\C)[C@@H](O)[C@@H](OC)C(=O)[C@H](C)C[C@H](C)/C=C/C=C/C=C/1C [EVEROLIMUS]
How it was run: as §1

[12] = compound: C#Cc1cccc(Nc2ncnc3cc(OCCOC)c(OCCOC)cc23)c1 [ERLOTINIB]
How it was run: as §1

[13] = compound: COc1cc(CCc2cc(NC(=O)c3ccc(N4CC(C)NC(C)C4)cc3)n[nH]2)cc(OC)c1 [AZD4547]
How it was run: as §1

Test System | area under dose-response curve [1] | area under dose-response curve [2] | area under dose-response curve [3] | area under dose-response curve [4] | area under dose-response curve [5] | area under dose-response curve [6] | area under dose-response curve [7] | area under dose-response curve [8] | area under dose-response curve [9] | area under dose-response curve [10] | area under dose-response curve [11] | area under dose-response curve [12] | area under dose-response curve [13]
CME SYNOVIAL | 4.45 | 2.37 | 4.03 | 2.46 | 2.33 | 3.27 | 2.09 | 3.17 | 1.25 | 3.07 |  |  | 
ASKA SYNOVIAL |  | 3.77 | 2.71 | 2.38 | 1.36 | 3.28 | 2.07 | 3.2 | 1.03 | 2.66 | 2.28 | 3.77 | 
BT549 BREAST |  | 1.9 | 2.87 | 2.79 | 1.62 |  | 3.02 | 3.1 | 1.03 | 1 |  | 3.57 | 3.46
SCC90 HEADNECK |  | 2.81 | 3.03 | 3.67 | 1.52 | 2.18 | 3.19 | 3.12 | 1.46 | 1.7 | 2.09 | 2.89 | 3.57
MG63 BONE |  | 2.15 | 3.13 | 3.13 | 1.86 | 3.12 | 2.72 | 3.07 | 1.03 | 1.34 | 2.17 |  | 2.57
SIHA CERVIX | 3.79 | 2.99 | 3.01 |  | 2.25 | 2.76 | 3.13 | 3.18 | 2.4 | 1.55 | 2.23 |  | 3.02
ZR751 BREAST | 3.79 | 2.86 | 1.96 |  | 1.87 | 2.56 | 3.62 | 2.73 | 2.02 | 1.83 | 1.57 |  | 3.05
HCC202 BREAST |  |  |  |  | 1.85 | 4.68 | 3.12 | 3.8 |  | 2.16 |  |  | 3.81
NCIH441 LUNG | 3.43 |  | 3.53 | 2.86 | 2.25 | 2.98 | 3.25 | 3.08 | 0.954 | 1.92 |  |  | 
SCC36 HEADNECK |  | 2.83 | 2.91 |  | 1.6 |  | 2.53 | 2.88 | 2.34 | 0.887 | 3.13 | 2.92 | 
SUM149 BREAST |  | 2.98 | 3.19 | 2.41 | 1.46 | 2.25 | 2.12 |  | 0.539 | 1.13 | 1.67 | 2.76 | 
JURKAT HAEMATOPOIETIC AND LYMPHOID TISSUE | 3.4 | 1.35 | 2.74 | 2.15 | 1.24 |  | 3.06 | 3.23 | 1.01 | 0.653 | 1.76 |  | 
SUM159 BREAST |  | 3.2 | 3.58 | 2.91 | 1.98 | 2.75 | 3.06 |  | 1.68 | 2.39 | 2.88 | 3.56 | 3.84
